Measured values published in PMC7759686, “Pharmacokinetics and Immunological Effects of Romidepsin in Rhesus Macaques” (Frontiers in Immunology, 2020).
Values joined by “and” are separate entries in the source; they are usually repeats but may differ in a detail not shown here. Identical values can stand only once.

Tests used:
[1] = RMD pharmacokinetics in plasma and tissues (LC-MS/MS); details: 7 mg/m^2 4-h IV infusion; for RMD plasma concentration at 2 h postinfusion: second round
[2] = tested on: CD8+ T cells; test: T lymphocyte functional assay (PMA/ionomycin stimulation, flow cytometry); assay type: in vivo, rhesus macaques (Macaca mulatta)
Procedure: To simplify the complication of RMD treatment and SIV infection, it was vital to assess the impact of RMD administration on the T-cell function, particularly on the cellular immune responses on uninfected RMs. Due to the incapability to assess the SIV-specific immune responses, the overall cytotoxic capacity of lymphocytes in the blood was assessed as follows. Frozen PBMCs were thawed, counted, and were either unstimulated or stimulated with PMA and ionomycin (Sigma, St. Louis, MO). PBMCs were stained with the following antibodies: CD3-V500 (SP34-2), CD4-APC (L200), CD8-PE-CF594 (RPA-T8), CD107a-APC-Cy7 (H4A3), Granzyme A-PerCP/Cy5.5 (CB9) (BioLegend), Granzyme B-Alexa Flour 700 (GB11), Granzyme K-FITC (GM6C3) (Santa Cruz Biotechnology, Dallas, TX), IFN-γ-FITC (4S.B3), and Perforin-PE (B-D48) (BioLegend); antibodies were from BD Biosciences unless otherwise noted. Stained PBMCs were then acquired on an LSR-II flow cytometer. Data were analyzed using FlowJo software (Treestar).
Previous studies reported conflicting data as to whether the functionality of CTLs is diminished by RMD administration ([41], [64]). Therefore, we performed functional assays on lymphocytes collected from superficial and mesenteric LNs and intestinal resections, focusing on the overall expression of the surrogate killing marker CD107a, along with granzymes A, B, and K, IFN-γ, and perforin with PMA and ionomycin stimulation ( Figure 11 ).

[3] = tested on: CD3+ T cells in tissues; test: CD3+ T cell frequency in intestine and LNs by immunofluorescence; assay type: in vivo, rhesus macaques (Macaca mulatta); details: for CD3+ T cells in superficial LNs, area fraction: average, pretreatment 30%, 7 mg/m^2
Procedure: CD3^+ T cell frequency in the intestine and LNs was assessed through immunofluorescence (IF), as described ([55]). Fixed, paraffin-embedded tissues from the three RMs were cut and placed onto microscope slides. The slides were treated three times with xylene (Thermo Fisher Scientific), run through an ethanol battery, washed with dH2O, and placed into 1× PBS (Thermo Fisher Scientific). Slides were microwaved with Antigen Unmasking Solution (Vector Labs, Burlingame, CA) for antigen retrieval. Once slides had cooled, they were washed three times in 1× PBS and the tissues were circled with Immedge Pen (Vector Labs) to create a hydrophobic barrier. Dako Serum-Free Protein Block (Agilent, Santa Clara, CA) was added to the tissues. The Dako Protein Block was dumped off and the slides incubated with mouse α-CD3 (Agilent). The primary antibody was dumped off and slides washed in 1× PBS as previously noted. The remaining steps were completed in the dark. The slides were incubated with the secondary antibody, goat α-mouse (Alexa Fluor 488) (Invitrogen) followed by a subsequent 1× PBS wash. The slides were incubated with DAPI (Millipore Sigma, Burlington, MA), and then dumped off and washed with 1× PBS, followed by dH2O, and dried. Coverslips were then mounted to the slides with fluorescent mounting media (Agilent). Slides were visualized and imaged with Zeiss Imager M1 microscope and Axiovision software [V4.8.2.0 (Carl Zeiss AG, Oberkochen, Germany)]. Image quantifications were performed using the FIJI distribution ([56]) of ImageJ 1.52c ([57]), where positive fluorescent signals were isolated by setting color thresholds and the percent positive area was calculated.

[4] = kel from mean concentration-time profile of 3 RMs
[5] = intestine, 2 days postinfusion, pretreatment 2%
[6] = mesenteric LN, 1 day postinfusion, pretreatment 2%
[7] = superficial LN, 2 days postinfusion, pretreatment 1%
[8] = superficial LN, 2 days postinfusion, pretreatment 4%

Q: For `C/C=C1\NC(=O)[C@H]2CSSCC/C=C/[C@H](CC(=O)N[C@H](C(C)C)C(=O)N2)OC(=O)[C@H](C(C)C)NC1=O` [RMD, romidepsin], which “GI tract terminal half-life relative to plasma” value [1] is on record?
A: Its value is 1.8 fold.

Q: What about the “LN terminal half-life relative to plasma” value [1] of the same compound?
A: The value was “seven-fold longer”.

Q: What about the “plasma concentration at 8 h postinfusion” value [1] of the same compound?
A: Its value is 5.16 nM.

Q: What about the “time with quantifiable concentrations in GI tract” value ([1]; last sampling 10 days) of the same compound?
A: The value was 10 days postinfusion.

Q: What about the “time with quantifiable concentrations in LNs” value ([1]; last sampling 10 days) of the same compound?
A: The value was 10 days postinfusion.

Q: What about the “mean terminal half-life in plasma” value ([1]; 3 SIV-naïve RMs, kel from semi-log regression of individual plasma data, observations after 96 h omitted) of the same compound?
A: Its value is 15.3 h.

Q: And the “RMD concentration in intestine at 4 h postinfusion” value ([1]; animal RM32)?
A: Its value is 354 ng/g.

Q: And the “RMD plasma concentration at 2 h postinfusion” value (“RMD plasma concentration” for short) ([1]; animal RM32, LC-MS/MS)?
A: The value was 47 ng/mL.

Q: What about the “RMD concentration in intestine at 4 h postinfusion” value ([1]; animal RM33) of the same compound?
A: The value was 3,932 ng/g.

Q: What about the “RMD plasma concentration” value ([1]; animal RM33, LC-MS/MS) of the same compound?
A: The value was 7.7 ng/mL and 8 ng/mL.

Q: And the “RMD plasma concentration” value ([1]; animal RM71, LC-MS/MS)?
A: Its value is 4.7 ng/mL and 5 ng/mL.

Q: And the “plasma concentration at 2 h postinfusion” value ([1]; group value of 3 RMs)?
A: Its value is 19.9 ng/mL.

Q: And the “RMD concentration in LNs at 4 h postinfusion” value ([1]; individual values of 3 RMs, superficial LNs, tissue density 1.0 g/ml assumed, LC-MS/MS)?
A: Its value is 70 ng/mL and 75 ng/mL and 101 ng/mL.

Q: And the “mean terminal half-life in gastrointestinal tract” value [1, 4]?
A: Its value is 28 h.

Q: And the “mean terminal half-life in lymph nodes” value [1, 4]?
A: Its value is 110 h.

Q: And the “RMD concentration in GI tract at 4 h postinfusion, median” value ([1]; median of 3 RMs, intestinal biopsies, LC-MS/MS)?
A: Its value is 3,665 ng/g.

Q: What about the “Granzyme K expression in CD8+ T cells” value ([2]; intestine, 2 days postinfusion, pretreatment 1%) of the same compound?
A: Its value is less than 1%.

Q: What about the “CD107a expression in CD8+ T cells” value [2, 5] of the same compound?
A: Its value is 1%.

Q: And the “Granzyme A expression in CD8+ T cells” value [2, 5]?
A: The value was less than 1%.

Q: What about the “Perforin expression in CD8+ T cells” value ([2]; intestines, 2 days postinfusion, pretreatment 1%) of the same compound?
A: The value was less than 1%.

Q: And the “IFN-γ expression in CD8+ T cells” value ([2]; intestines, 2 days postinfusion, pretreatment 2%)?
A: The value was 1%.

Q: And the “Granzyme B expression in CD8+ T cells” value ([2]; intestines, 2 days postinfusion, pretreatment 11%)?
A: Its value is 3%.

Q: What about the “CD107a expression in CD8+ T cells” value ([2]; mesenteric LN, 1 day postinfusion, pretreatment 1%) of the same compound?
A: Its value is less than 1%.

Q: And the “Granzyme K expression in CD8+ T cells” value [2, 6]?
A: The value was less than 1%.

Q: What about the “Perforin expression in CD8+ T cells” value [2, 6] of the same compound?
A: Its value is less than 1%.

Q: And the “IFN-γ expression in CD8+ T cells” value ([2]; mesenteric LN, 1 day postinfusion, pretreatment 5%)?
A: The value was 3%.

Q: What about the “Granzyme B expression in CD8+ T cells” value ([2]; mesenteric LN, 2 days postinfusion, pretreatment 5%) of the same compound?
A: The value was 2%.

Q: What about the “Granzyme A expression in CD8+ T cells” value ([2]; mesenteric LNs, 1 day postinfusion, pretreatment 1%) of the same compound?
A: The value was less than 1%.

Q: What about the “CD107a expression in CD8+ T cells” value [2, 7] of the same compound?
A: The value was less than 1%.

Q: What about the “Granzyme K expression in CD8+ T cells” value [2, 7] of the same compound?
A: Its value is less than 1%.

Q: What about the “Perforin expression in CD8+ T cells” value [2, 7] of the same compound?
A: The value was less than 1%.

Q: What about the “Granzyme B expression in CD8+ T cells” value [2, 8] of the same compound?
A: Its value is 1%.

Q: And the “IFN-γ expression in CD8+ T cells” value [2, 8]?
A: The value was 1%.

Q: And the “Granzyme A expression in CD8+ T cells” value ([2]; superficial LNs, 2 days postinfusion, pretreatment 1%)?
A: Its value is less than 1%.

Q: What about the “CD3+ T cells in superficial LNs, area fraction” value ([3]; 6 h postinfusion) of the same compound?
A: The value was 40%.

Q: And the “CD3+ T cells in intestine, area fraction” value ([3]; 1 day postinfusion, three RMs, pretreatment 5.8%, not significant)?
A: Its value is 7.6%.

Q: And the “CD3+ T cells in superficial LNs, area fraction” value ([3]; 7 days postinfusion)?
A: Its value is 41%.

Q: What about the “CD3+ T cells in mesenteric LNs, area fraction” value ([3]; animal RM71, 1 day postinfusion, pretreatment 31%) of the same compound?
A: Its value is 43%.

Q: And the “CD3+ T cells in mesenteric LNs, area fraction” value ([3]; animals RM32 and RM33, 1 day postinfusion vs pretreatment, p > 0.05)?
A: Its value is “virtually unchanged”.
